In one experiment the target is WEE1 kinase enzyme (Homo sapiens (Human), UniProt P30291). Put plainly: WEE1 IC50 determination, LanthaScreen Terbium labeled TR-FRET kinase assay. In kind it is biochemical. Particulars: WEE1 enzyme 1 nM. In short, it runs like this:
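Human WEE1 (1 nM) was preincubated 10 min with 3-fold diluted compounds, then ATP ([…]) and fluorescent PolyGT substrate (200 nM) were added for 1 h at room temperature in the dark. Terbium antibody/EDTA stop, TR-FRET read (ex 340, em 495/520 nm); IC50 from four-parameter logistic fit of percent inhibition.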
A general note: TR-FRET usually uses a lanthanide donor and a delayed reading to cut background.

The subject of a further experiment is HCT-116 cells. As to the kind of experiment: Cell proliferation assay (Cell Titer-Glo), HCT-116 cells. In kind it is cell-based. Particulars: Homo sapiens, typically 72 hrs post-treatment, read-out: IC50 HCT116. As for the experimental part:
(§1) The effects of test compounds were studied in five cell lines with various histotypes. The cancer cells (Table 4) were harvested during the logarithmic growth period and counted. Adjust cell concentrations to the appropriated number with respective medium, and add 90 μL cell suspensions to 96-well plates. After cells were seeded, the plates were shaken gently to distribute cells evenly and incubated at 37° C., 5% CO2 on day 1.
(§2) Cells were treated with test compounds at 9 concentrations within a desired concentration range (e.g. 1.5 nM-10 μM) on day 2 by series diluting the test compound stock solution (10 mM in DMSO) with culture medium. Cell viability was assessed by Cell Titer-Glo® as recommended by Promega (Cat. No.: G7572, Promega) typically 72 hrs post-treatment.
(§3) Cell viability data were plotted using GraphPad Prism (version 5, GraphPad Software, Inc., San Diego, Calif.). In addition, a nonlinear regression model with a sigmoidal dose response and variable slope within GraphPad Prism was used to calculate the IC50 value of individual test compounds.
On the technique in general: Cellular ATP, detected with luciferase, serves as a proxy for viable cell number.

Experiment [1] concerns A427 cells. As to the kind of experiment: Cell proliferation assay (Cell Titer-Glo), A427 cells. In kind it is cell-based. Particulars: Homo sapiens, A-427, typically 72 hrs post-treatment. As for the experimental part:
as §1, §2, §3

The test system of a further experiment is NCI-H460 cells. Put plainly: Cell proliferation assay (Cell Titer-Glo), NCI-H460 cells. In kind it is cell-based. The settings on record: Homo sapiens, typically 72 hrs post-treatment. As for the experimental part:
as §1, §2, §3

For experiment [2], the system named is A427 cells. Put plainly: Cytotoxicity assay (resazurin), A427 cells, 72 hr. The settings on record: Homo sapiens, A-427, read-out: Cell Viability A427 IC50. The class given is cell-based. The procedure, abridged:
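Cells seeded at 1500 per well, grown 24 hr at 37° C, 5% CO2, then exposed to serially diluted compounds for 72–96 hr before 4–6 hr with 1 mM resazurin (Ex 535/Em 590 nm). Blank-subtracted signal normalised to DMSO control; percent inhibition used for IC50.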
(The colour change of resazurin is a common sign of viable cells or microbes.)

In the next experiment the test system is LoVo cells. Put plainly: Cell proliferation assay (Cell Titer-Glo), LoVo cells. In kind it is cell-based. Particulars: Homo sapiens, typically 72 hrs post-treatment. The procedure: as §1, §2, §3
The test system of another experiment is A549 cells. As to the kind of experiment: Cytotoxicity assay (resazurin), A549 cells, 96 hr. The settings on record: Homo sapiens, read-out: Cell Viability A549 IC50. In kind it is cell-based. As for the experimental part:
(§4) A549 (CCL-185; ATCC) and A427 (HTB-53; ATCC), both lung epithelial cell lines were seeded in their respective medium (DMEM/MEM, 10569044/41090101; Gibco) at a cell count of 1500 cells per 100 μL per well in a 96 well edge plate (167425; ThermoFisher). Cells were allowed to grow at 37° C. for 24 hr in 5% CO2 environment (culture conditions) in a Nuaire incubator (humidified). Serially diluted test compounds (100 μL) within the desired testing concentration ranges were added to the culture plate were further incubated in culture conditions for 72 hr and 96 hr for A427 and A549 respectively. The experiment was terminated at the designated incubation time by replacing the medium with 100 μL of 1 mM of resazurin (R7017; Sigma) prepared in respective culture medium, and the plates were further incubated in culture conditions for 4-6 hr. Fluorescence was recorded using a multimodal plate reader (Biotek Synergy Neo) at an excitation wavelength of 535 nm and emission wavelength of 590 nm to obtain relative fluorescence units. Data analysis was done by subtracting the background fluorescence (only medium blank) value from each reading and then normalizing with the vehicle control (DMSO treated cells) to obtain percent survival/proliferation. Percent survival was then subtracted by 100 to get the percent inhibition of proliferation which was used to calculate IC50 values. Potency of compounds in other cell lines (As-Pc-1, Panc-10.05, MDAMB231, A172) was determined in an analogous manner.

The next experiment has as its system MDAMB231 cells. As to the kind of experiment: Cytotoxicity assay (resazurin), MDAMB231 cells. In kind it is cell-based. Particulars: Homo sapiens, MDA-MB-231, read-out: Cell Viability MDAMB 231 IC50. As for the experimental part:
as §4

A further experiment relates to As-Pc-1 cells. Put plainly: Cytotoxicity assay (resazurin), As-Pc-1 cells. In kind it is cell-based. Particulars: Homo sapiens, ASPC1, read-out: Cell Viability AsPC-1 IC50. The procedure:
as §4

Another experiment concerns Panc-10.05 cells. Put plainly: Cytotoxicity assay (resazurin), Panc-10.05 cells. Particulars: Homo sapiens, Panc1005, read-out: Cell Viability Panc 10.05 IC50. In kind it is cell-based. As for the experimental part: as §4
A further experiment relates to A172 cells. As to the kind of experiment: Cytotoxicity assay (resazurin), A172 cells. The class given is cell-based. Particulars: Homo sapiens, A 172, read-out: Cell Viability A172 IC50. As for the experimental part: as §4
Experiment [3] concerns A427 cells. As to the kind of experiment: Cell viability in combination with cisplatin in A427 cells (resazurin). The settings on record: Homo sapiens, A-427, 24 hr 2.5 μM cisplatin. In kind it is cell-based. The procedure: The activity of test compounds in combination with cisplatin in A427 cells was determined. Cells were seeded in a 96 well plate at 2000 cells/well. The next day, cells were treated with 2.5 μM cisplatin or vehicle (1×PBS) and incubated in culture conditions (37° C., 5% CO2) for 24 hr. Following the incubation, culture medium was replaced with medium containing test compound and cisplatin/vehicle, and cells were further incubated in culture conditions for another 72 hr. By this procedure, cisplatin was either continued or discontinued after an initial 24-hr incubation. Addition of test compound was in concentrations needed to obtain an 8-point dose response curve, with concentrations prepared by 3-fold dilution. The assay was terminated upon addition of resazurin, incubation for 4 hr in culture conditions and measurement of fluorescence at excitation and emission wavelengths of 535 and 590 nm, respectively.

The next experiment has as its system CDC2 at Tyr15 residue. The settings on record: in combination with gemcitabine, carboplatin, or cisplatin; cited from earlier work.
In another experiment the test system is A2780 cells. Put plainly: Cell proliferation assay (Cell Titer-Glo), A2780 cells. The class given is cell-based. Particulars: Homo sapiens, typically 72 hrs post-treatment. As for the experimental part: as §1, §2, §3
Setting [4] is: then compound + cisplatin 72 hr, read-out: Cell viability IC50 in A427 cells with 2.5 μM cisplatin: 24 hr cisplatin then compound + cisplatin.
[5] abbreviates: then compound alone 72 hr, read-out: Cell viability IC50 in A427 cells with 2.5 μM cisplatin: 24 hr cisplatin then compound.

Structures can show the parent of a compound that is named as a salt.

What is called IC50 is the concentration needed to halve the response being measured.

Sequence of WEE1 kinase enzyme (P30291 whole entry): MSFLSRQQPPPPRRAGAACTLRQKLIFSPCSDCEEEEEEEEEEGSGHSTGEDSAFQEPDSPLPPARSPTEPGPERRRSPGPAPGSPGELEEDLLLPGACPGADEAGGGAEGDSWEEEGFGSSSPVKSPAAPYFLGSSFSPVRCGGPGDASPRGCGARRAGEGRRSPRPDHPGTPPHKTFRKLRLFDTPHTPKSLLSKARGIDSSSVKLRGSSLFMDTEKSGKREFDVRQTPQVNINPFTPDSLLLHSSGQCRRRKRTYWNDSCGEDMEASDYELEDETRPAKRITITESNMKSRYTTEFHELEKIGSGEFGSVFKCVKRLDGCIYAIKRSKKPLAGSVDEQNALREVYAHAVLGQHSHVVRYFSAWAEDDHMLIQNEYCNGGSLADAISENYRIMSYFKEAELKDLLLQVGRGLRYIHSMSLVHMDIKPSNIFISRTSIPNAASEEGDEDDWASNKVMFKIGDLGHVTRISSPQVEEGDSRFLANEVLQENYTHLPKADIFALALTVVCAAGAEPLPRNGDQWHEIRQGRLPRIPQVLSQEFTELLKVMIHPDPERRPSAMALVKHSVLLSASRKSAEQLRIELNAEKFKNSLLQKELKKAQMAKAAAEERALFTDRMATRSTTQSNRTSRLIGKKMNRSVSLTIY

As for `CC1(C)CN(C(=O)CO)Cc2cc(Nc3ncc4c(n3)OCN(c3c(Cl)cccc3Cl)C4=O)ccc21` [Example 1.3], the half-maximal inhibitory concentration (IC50) at WEE1 kinase enzyme was 0.04 µM; in the experiment on HCT-116 cells, 8.12 µM; with A427 cells [1] it was 5.98 µM; in the experiment with NCI-H460 cells it was greater than 10 µM; in the experiment on A427 cells [2] it was 4.52 µM; with LoVo cells, 8.26 µM. Further, the IC50 with A549 cells came out at 2.99 µM.

With `O=C1c2cnc(Nc3ccc4c(c3)CNCC43CC3)nc2OCN1c1c(Cl)cccc1Cl` [Example 1.51, 3-(2,6-dichlorophenyl)-7-(2′,3′-dihydro-1′H-spiro[cyclopropane-1,4′-isoquinoline]-7′-ylamino)-2H-pyrimido[5,4-e][1,3]oxazin-4(3H)-one], the 50% inhibitory concentration (IC50) was found to be 0.011 µM on WEE1 kinase enzyme; 8.76 µM with MDAMB231 cells; 3.21 µM in the experiment with As-Pc-1 cells; 3.04 µM with A427 cells [2]; 3.34 µM in the experiment on Panc-10.05 cells; 6.45 µM in the experiment on A549 cells. Further, in the experiment on A172 cells, the IC50 worked out at 8 µM.

`O=C1c2cnc(Nc3ccc(C4CCNCC4)cc3)nc2OCN1c1c(Cl)cccc1Cl` [Example 1.12]: the IC50 was 0.0735 µM at WEE1 kinase enzyme; 3.43 µM with A427 cells [1]; 9.04 µM in the experiment on MDAMB231 cells; 7.88 µM in the experiment with As-Pc-1 cells; 3.58 µM in the experiment with A427 cells [2]; 3.17 µM with Panc-10.05 cells. Besides, the IC50 in the experiment on A549 cells was 4.7 µM; in the experiment on A172 cells it was 7.13 µM.

In the case of `O=C1c2cnc(Nc3ccc4c(c3)CNCC4)nc2OCN1c1c(Cl)cccc1Cl` [Example 1.24], the IC50 at WEE1 kinase enzyme worked out at 0.035 µM; in the experiment with A427 cells [1] it was 2.85 µM; in the experiment with A427 cells [3] (setting [4]), 0.06 µM; in the experiment on A427 cells [3] (setting [5]) it was 0.12 µM; in the experiment on A427 cells [2], 2.96 µM; with A549 cells, 6.45 µM.

For the molecule `C=CCn1c(=O)c2cnc(Nc3ccc(N4CCN(C)CC4)cc3)nc2n1-c1cccc(C(C)(C)O)n1` [MK-1775, 1,2-allyl-1-(6-(2-hydroxypropan-2-yl)pyridin-2-yl)-6-((4-(4methylpiperazin-1-yl)phenyl)amino)-1H-pyrazolo[3,4-d]pyrimidin-3 (2H)-one], in the experiment on CDC2 at Tyr15 residue, the “Phosphorylation of CDC2 at Tyr15” value is reported as “abolished the phosphorylation of CDC2 at Tyr15 residue”.

For `CC1(C)CNCc2cc(Nc3ncc4c(n3)OCN(c3c(Cl)cccc3Cl)C4=O)ccc21` [Example 1.10], the IC50 on WEE1 kinase enzyme was 0.011 µM; in the experiment with A427 cells [1], 1.67 µM; with A427 cells [3] (setting [4]) it was less than 0.014 µM; in the experiment on A427 cells [3] (setting [5]), 0.36 µM; in the experiment with A427 cells [2], 1.99 µM; in the experiment on A549 cells, 2.6 µM. Further, the IC50 with A2780 cells is 3.85 µM.

With `COc1cc(Nc2ncc3c(n2)OCN(c2c(Cl)cccc2Cl)C3=O)ccc1N1CCNCC1` [Example 1.53, 3-(2,6-dichlorophenyl)-7-(3-methoxy-4-(piperazin-1-yl)phenylamino)-2H-pyrimido[5,4-e][1,3]oxazin-4(3H)-one dihydrochloride], the IC50 came to 0.033 µM at WEE1 kinase enzyme; 10.5 µM in the experiment on MDAMB231 cells; 2.41 µM in the experiment with As-Pc-1 cells; 3.61 µM with A427 cells [2]; 9.34 µM in the experiment with Panc-10.05 cells; 4.72 µM with A549 cells. The IC50 with A172 cells stood at 9.68 µM.

For the molecule `Cc1cc(Nc2ncc3c(n2)OCN(c2c(Cl)cccc2Cl)C3=O)ccc1C1CCNCC1` [Example 1.60], the IC50 at WEE1 kinase enzyme came to 0.0435 µM; in the experiment on MDAMB231 cells, 5.34 µM; in the experiment with As-Pc-1 cells, 2.91 µM; in the experiment with A427 cells [2], 2.58 µM; in the experiment on Panc-10.05 cells, 2.85 µM; with A549 cells, 8.34 µM. For the same molecule, the IC50 with A172 cells was found to be 4.8 µM.

Turning to `O=C1c2cnc(Nc3ccc(N4CCNCC4)c(CO)c3)nc2OCN1c1c(Cl)cccc1Cl` [Example 1.16], the IC50 at WEE1 kinase enzyme is 0.049 µM; with A427 cells [1], 3.04 µM; in the experiment with A427 cells [3] (setting [4]), less than 0.014 µM; in the experiment with A427 cells [3] (setting [5]) it was 0.18 µM; in the experiment on A427 cells [2] it was 2.13 µM; with A549 cells it was 3.98 µM.

With `CC1(C)NCCc2cc(Nc3ncc4c(n3)OCN(c3c(Cl)cccc3Cl)C4=O)ccc21` [Example 1.227], the IC50 on WEE1 kinase enzyme turned out to be 0.021 µM; with MDAMB231 cells it was 8.78 µM; with As-Pc-1 cells it was 2.94 µM; in the experiment with A427 cells [2], 2.2 µM; in the experiment on Panc-10.05 cells it was 4.93 µM; in the experiment on A549 cells, 9.04 µM. Further, the IC50 in the experiment on A172 cells worked out at 6.62 µM.

With `N#Cc1cc(Nc2ncc3c(n2)OCN(c2c(Cl)cccc2Cl)C3=O)ccc1N1CCNCC1` [Example 1.55, 5-(3-(2,6-dichlorophenyl)-4-oxo-3,4-dihydro-2H-pyrimido[5,4-e][1,3]oxazin-7-ylamino)-2-(piperazin-1-yl)benzonitrile], the IC50 was 0.106 µM at WEE1 kinase enzyme; less than 0.014 µM with A427 cells [3] (setting [4]); 0.53 µM in the experiment on A427 cells [3] (setting [5]); 2.32 µM in the experiment with A427 cells [2]; 1.59 µM in the experiment with A549 cells; 6.8 µM in the experiment with A2780 cells.

The values above are taken from patent US10807994B2, “Heterocyclic compounds and uses thereof” (NUVATION BIO INC., priority 2017, dated 2020).
